Laboratory results: patent publication US20230113539A1, “Traditional Chinese medicine for dispersing lung qi and detoxicating” (priority 2020, published 2023)
Like-named read-outs stand apart in the source and are kept apart here.

Columns and labels:
[1] = test system: human coronavirus (HCoV-229E); format: in vivo
GAS, MTL in mouse serum = assay: Gastrin (GAS) and motilin (MTL) in mouse serum (ELISA), same mouse model; format: in vivo, BALB/c mice
Description: (§1) 90 Balb/c mice are taken, SPF-grade, half male and half female, and the body weight is 10-12 g. They are randomly divided into a normal control group, a 229E infection group, a cold-damp control group, a disease-syndrome combination model group of epidemic viruses attacking lungs in mice (hereinafter referred to as an epidemic virus attacking lung model group), a chloroquine phosphate positive drug group, and an interferon α2b positive drug group, and high, medium and low dosage groups of the traditional Chinese medicine granules of the present invention, there are 10 mice in each group. Except for the normal control group and the 229E infection group, the other mice are continuously placed in an artificial climate box with a relative humidity of 90±3%, no wind, and a temperature of 4±2° C. every day, and are taken out after 4 hours of stimulation for 7 consecutive days.
(§2) Except for the normal control group and the cold-damp control group, the other mice are infected with 100 TCID50HCOV-229E virus droplets nasally at 50 μL/mice after mild anesthesia with ether on the 5-th and 6-th days of cold-damp stimulation. The administration of each administration group starts on the day of the first infection, and each dosage group of the traditional Chinese medicine granules of the present invention and the chloroquine phosphate positive drug group are administered by gavage at 0.2 ml/10 g; the normal control group, the cold-damp control group, the 229E infection group, the epidemic virus attacking lung model group are given with normal saline under the same conditions; the interferon α2b positive drug group is inhaled with the original drug solution by atomization, and each time is 20 min. It is administered once a day for 3 consecutive days. On the 4-th day of the infection, autopsy is performed after being weighed, and the following indicators are observed and detected.
(§3) 2.4.4 Detection of Gastrin (GAS), Motilin (MTL) in Mouse Serum and Inflammatory Factor in Lung Tissue (ELISA Method)
After dissection, mouse […] is placed at a room temperature for 30 min, and centrifuged at 3000×g for 10 min, and a supernatant is absorbed into a new eppendorf (ep) tube and stored at −20° C. During the detection, it is operated according to kit instructions, and a microplate reader detects each index at 450 nm of the absorbance.

HCoV-229E nucleic acid = assay: Nucleic acid detection (viral load) in lung tissue (RT-PCR), same mouse model; format: in vivo, BALB/c mice
[2] = test system: inflammatory factors IL-6, IL-10, TNF-α, INF-γ in lung tissue; assay: Inflammatory factor content in lung tissue (ELISA), same mouse model; format: in vivo, BALB/c mice
Description: as §1, §2, §3
Lung tissue homogenate sample: after weighing the lung tissue from the mouse, the mouse lung tissue is collected and stored at […]. After weighing 50 mg of the lung tissue and adding 500 μL of normal saline, the tissue is homogenized with an ultrasonic cell disruptor, and centrifuged at […] at 1000 xg for 10 minutes with a lower-temperature high-speed centrifuge. After the supernatant is absorbed, it is separately packaged, and stored in the −80° C. refrigerator for later use. Repeated freezing and thawing is avoided. During the detection, it is operated according to the kit instructions, and the microplate reader detects each index at 450 nm of the absorbance.

[3] = test system: peripheral blood T lymphocyte subset and B lymphocyte; assay: Flow cytometry of peripheral blood T lymphocyte subset and B lymphocyte proportion, same mouse model; format: in vivo, BALB/c mice
[4] = chloroquine phosphate Id: 0.18 g/kg/d, 2~3: 0.09 g/kg/d
[5] = chloroquine phosphate Id: 0.18 g/kg/d, 2~3 d: 0.09 g/kg/d
[6] = interferon α2b 300 million IU, 20 min

`CCN(CC)CCCC(C)Nc1ccnc2cc(Cl)ccc12` (centres unmarked) [Chloroquine phosphate] was tested, and the “Inhibition rate % (of lung index)” value ([1]; chloroquine phosphate Id: 0.18 g/kg/d, 2-3: 0.09 g/kg/d) was 9.82%, the “Lung index (Lung weight/100 g body weight)” value ([1]; chloroquine phosphate Id: 0.18 g/kg/d, 2-3: 0.09 g/kg/d, gavage) was 0.85 ± 0.11 and the “Factor content in serum GAS” value (GAS, MTL in mouse serum; [4]) was 8.75 ± 1.41 pg/mL. The “Factor content in serum MTL” value (GAS, MTL in mouse serum; [4]) was 105.69 ± 16.85 pg/mL, the “Viral load (lung tissue)” value (HCoV-229E nucleic acid; [5]) was 56027.66 ± 31638.92 and the “Inflammatory factor content in lung tissue IL-6” value [2, 5] was 149.98 ± 29.37 pg/mL. For the same compound, the “Inflammatory factor content in lung tissue IL-10” value [2, 5] was 52.54 ± 29.40 pg/mL, the “Inflammatory factor content in lung tissue INF-γ” value [2, 5] was 2.77 ± 3.48 pg/mL and the “Inflammatory factor content in lung tissue TNF-α” value [2, 5] was 38.33 ± 9.62 pg/mL. The “CD4+/CD8+ (peripheral blood)” value [3, 5] was 1.65 ± 0.23, the “Percentage of immune cells in peripheral blood B cell” value [3, 5] was 15.72 ± 2.24% and the “Percentage of immune cells in peripheral blood CD4+T cell” value [3, 5] was 32.47 ± 4.65%. For the same compound, the “Percentage of immune cells in peripheral blood CD8+T cell” value [3, 5] was 20.03 ± 3.68 %.

For Interferon α2b, the “Inhibition rate % (of lung index)” value ([1]; interferon α2b 3 million IU, 20 min) was 40.38%, the “Lung index (Lung weight/100 g body weight)” value ([1]; interferon α2b 3 million IU, 20 min, atomization inhalation) was 0.79 ± 0.11 and the “Factor content in serum GAS” value (GAS, MTL in mouse serum; [6]) was 8.94 ± 1.07 pg/mL. For the same compound, the “Factor content in serum MTL” value (GAS, MTL in mouse serum; [6]) was 115.43 ± 7.90 pg/mL, the “Viral load (lung tissue)” value (HCoV-229E nucleic acid; [6]) was 63758.38 ± 17530.19 and the “Inflammatory factor content in lung tissue TNF-α” value [2, 6] was 33.86 ± 8.72 pg/mL. For the same compound, the “Inflammatory factor content in lung tissue IL-6” value ([2]; interferon α2b, 20 min) was 199.07 ± 38.37 pg/mL, the “Inflammatory factor content in lung tissue IL-10” value ([2]; interferon α2b, 20 min) was 102.25 ± 58.14 pg/mL and the “Inflammatory factor content in lung tissue INF-γ” value ([2]; interferon α2b, 20 min) was 4.20 ± 3.39 pg/mL. For the same compound, the “CD4+/CD8+ (peripheral blood)” value [3, 6] was 1.92 ± 0.63, the “Percentage of immune cells in peripheral blood CD4+T cell” value [3, 6] was 35.17 ± 4.24% and the “Percentage of immune cells in peripheral blood CD8+T cell” value [3, 6] was 19.68 ± 4.53 %. For the same compound, the “Percentage of immune cells in peripheral blood B cell” value ([3]; interferon α2b, 20 min) was 6.40 ± 0.98%.
